Assay results from PubChem BioAssay (NCI).
Several values for one entry are separate records, joined by “and”; a condition that tells them apart may be missing. Equal entries are not always repeated.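 Growth conditions: 96-well plates. Treatment: test compound, 48 hours, 5 concentrations. Analysis: linear interpolation between bracketing concentrations; unreached endpoints set to highest concentration. Here, GI50 denotes the concentration required for 50% inhibition of growth. TGI: total growth inhibition.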

Key:
Assay in all cases: NCI anticancer screen, dose series, 48 h
[1] = system: CAKI-1 renal
[2] = system: UACC-257 melanoma
[3] = system: SNB-19 CNS
[4] = system: SF-295 CNS
[5] = system: 786-0 renal
[6] = system: SF-268 CNS
[7] = system: MALME-3M melanoma
[8] = system: RPMI-8226 leukemia
[9] = system: MDA-MB-231 breast
[10] = system: A498 renal

SMILES	TGI [1] [µM]	TGI [2]	TGI [3]	TGI [4]	TGI [5]	TGI [6] [µM]	TGI [7]	GI50 [1]	GI50 [2] [µM]	GI50 [3]	GI50 [4] [µM]	GI50 [5] [µM]	GI50 [6]	GI50 [8] [µM]	TGI [8]	GI50 [7] [µM]	GI50 [9] [µM]	TGI [9] [µM]	TGI [10] [µM]	GI50 [10] [µM]
CCCCCCCCCCC/C(=N/O)c1ccc(O)c2ncccc12	51.6	24.2 µM	> 100 µM	6.78 µM	30.2 µM	> 100	12.6 µM													
OCCCCC#Cc1ccccc1C#Cc1ccccc1	29.1	43.8 µM	37.2 µM	22.6 µM	22.5 µM	37.6	32.1 µM	14.7 µM	19.4	0.153 µM	7.65	8.6	16.8 µM	15.9	37.7 µM	16.9	4.29	14.1		
Clc1ccc(Cl)c2[s+]snc12	> 100	> 100 µM	> 100 µM	> 100 µM	> 56.1 µM	> 100	99.5 µM								> 77.6 µM				> 100	
N[C@@H](Cc1c[nH]c2ccccc12)C(=O)NC1CCN(C(=O)c2c[nH]c3ccccc23)CC1	> 100		> 100 µM	> 100 µM	> 100 µM	> 100	> 100 µM	> 100 µM		99.8 µM	> 100	78.1	> 100 µM	> 100	> 100 µM	77.5	75.4	> 100		
COc1ccc(C=C2C(=O)OC(C)(C)OC2=O)cc1OC	> 100	> 100 µM	> 100 µM	> 100 µM	> 100 µM	> 100	> 100 µM								> 100 µM				> 100	
O=C1NC(=S)NC(=O)C1=Cc1cc2c(cc1[N+](=O)[O-])OCO2	> 100	> 100 µM	> 100 µM		> 100 µM	> 100	> 100 µM								> 100 µM				> 100	
CCCCCCCCCCCCCCCCCC(=O)OCC(CN(C)CCN(C)C)OC(=O)CCCCCCCCCCCCCCCCC (stereo unspecified)	> 100	> 100 µM	> 100 µM	> 100 µM	> 100 µM	> 100	> 100 µM								> 100 µM				> 100	
COC(=O)C1CC(C(=O)OC)c2nc3cc(C)ccc3nc21 (stereo unspecified)	> 100	> 100 µM	> 100 µM	> 100 µM	> 100 µM	> 100	> 100 µM								> 100 µM				> 100	
N#CC(C(=O)/C(=N/N)C(C#N)c1ccc(Cl)cc1)c1ccc(Cl)cc1 (stereo unspecified)		> 100 µM	> 100 µM	> 100 µM	> 100 µM	> 100	> 100 µM								> 100 µM				> 100	
CC(=O)O[C@H]1C(=O)[C@@]2(C)C(C(OC(=O)c3ccccc3)[C@]3(O)CC(OC(=O)[C@H](OC(=O)CCC(=O)O)C(NC(=O)c4ccccc4)c4ccccc4)C(C)=C1C3(C)C)C1(OC(C)=O)COC1C[C@@H]2OC(=O)CCC(=O)O (stereo partly specified)	> 100	> 100 µM	> 100 µM		> 100 µM	> 100	> 100 µM	> 89.2 µM and 36.3 µM											5.65	0.0997
CCOC(=O)CC(=O)Sc1ccccc1		91.4 µM	> 100 µM	86.5 µM	37 µM	23.1	> 100 µM								51 µM				57.4	
CCCN(CCCCC(NC(C)=O)C(=O)NCc1ccccc1)C(=O)NCCCl (stereo unspecified)	> 100	> 100 µM	> 100 µM	> 100 µM	> 100 µM	> 100	> 100 µM								> 100 µM					
Cc1c(/C=N/NS(=O)(=O)c2ccccc2)no[n+]1[O-]	> 100		> 100 µM	> 100 µM	> 100 µM	> 100	> 100 µM								> 100 µM				> 100	
CCOP(=O)(OCC)C(NC(c1ccccc1)c1ccccc1)c1ccccc1 (stereo unspecified)	22.2		> 100 µM	14.8 µM	29.2 µM	35.4		10.4 µM		48.1 µM	2.05	14.6	15.6 µM	4.18	22.3 µM		10.6	26.3		
CCOc1ccc(N=Cc2cccc3cccnc23)cc1	> 100	> 100 µM	> 100 µM	> 100 µM	> 100 µM	> 100	> 100 µM								> 100 µM				> 100	
Clc1ccc(-n2nnc(C3=NCCN3)c2-c2ccccc2)cc1	> 100	> 100 µM	> 100 µM	> 100 µM	> 100 µM	> 100	> 100 µM								> 100 µM				> 100	
COC(=O)C1=C(C)N(NC(N)=O)C2(N)N(NC(N)=O)C(C)=C(C(=O)OC)C12C(=O)OC (stereo unspecified)	> 100	> 100 µM	> 100 µM	> 10 µM	> 100 µM	> 100	> 100 µM								> 100 µM				> 100	
COc1ccc2[nH]c(-c3ccccn3)cc(=O)c2c1		> 100 µM	> 100 µM	> 100 µM	> 100 µM	65.8	75.6 µM				51.5		24.2 µM		> 100 µM					
[N-]=[N+]=NC(c1cn(C2CC(O)C(CO)O2)c(=O)[nH]c1=O)C(Br)I (stereo unspecified)	> 100		> 100 µM	> 100 µM	> 100 µM		> 100 µM								> 100 µM					
O=C1C(Cl)C(c2cccc(O)c2)N1n1cnc2ccccc2c1=O (stereo unspecified)	> 100	> 100 µM	> 100 µM	> 100 µM	> 100 µM	> 100	> 100 µM								> 100 µM					
CC(O)/C=C/C(CCC(C)CO)C(C)C (stereo unspecified)	> 100	> 100 µM	> 100 µM	> 100 µM	> 100 µM	> 100	> 100 µM								> 100 µM				> 100	

SMILES	TGI [1] [µM]	TGI [2]	TGI [3]	TGI [4]	TGI [5]	TGI [6] [µM]	TGI [7]	GI50 [1]	GI50 [2] [µM]	GI50 [3]	GI50 [4] [µM]	GI50 [5] [µM]	GI50 [6]	GI50 [8] [µM]	TGI [8]	GI50 [7] [µM]	GI50 [9] [µM]	TGI [9] [µM]	TGI [10] [µM]	GI50 [10] [µM]
Cc1cn(C2CC(F)C(CO)O2)c(=O)[nH]c1=O (stereo unspecified)	> 100	> 100 µM			> 100 µM		> 100 µM	> 100 µM	> 100			> 100		> 100	> 100 µM	> 100	> 100	> 100		
CC1OC(n2ncc(=O)[nH]c2=O)C=CC1=O (stereo unspecified)	> 100	> 100 µM	> 100 µM	> 100 µM	> 100 µM	> 100	40.2 µM and 48.3 µM		37	> 100 µM and 35.1 µM			> 100 µM and 36.6 µM		99.3 µM and 62 µM					
COc1ccc(/C=N/N=C(\N)NO)cc1OC	92.3	> 100 µM	> 100 µM	> 100 µM	> 100 µM	73.6	> 100 µM								> 100 µM					
O=C1C=C[C@@]23CC1C(O)C[C@H]2C=Cc1ccccc13 (stereo partly specified)	> 100	> 100 µM	> 100 µM	> 100 µM	> 100 µM	> 100	> 100 µM								> 100 µM				> 100	
O=C1C(Cl)=C(Cl)C(=O)N1C1C2CC3CC(C2)CC1C3 (stereo unspecified)	> 66.9	> 100 µM	> 100 µM	> 100 µM	> 100 µM	> 100	> 100 µM								> 80.5 µM				> 100	
Cc1c(C#N)cccc1-c1cc(-c2cn(Cc3cccc(C(C)(C)O)n3)nn2)nc(N)n1	> 100	> 100 µM	> 100 µM	> 100 µM	> 100 µM	> 100	> 100 µM	10.4 µM	27.7	47.4 µM	25.2	32	45.4 µM	7.57	34.9 µM	31.3	15.7	> 100		
C/C(O)=C(\N=O)C(=O)NCCc1ccccc1	> 100	> 100 µM	> 100 µM	> 100 µM	> 100 µM	> 100	> 100 µM								> 100 µM				> 100	
CC(=O)OC1C(=O)C(O)C(C)OC1O[C@@H]1C[C@@]2(C)[C@@H]3CC=C4[C@@H](C[C@H](O)C(=O)C4(C)C)[C@]3(C)C(=O)C[C@]2(C)[C@H]1[C@@](C)(O)C(=O)/C=C/C(C)(C)O (stereo partly specified)	2.98	7.05 µM	4.56 µM	7.19 µM	4.64 µM	4.01	9.83 µM								8.04 µM				1.04	
O=C1c2cccc3cc([N+](=O)[O-])cc(c23)C(=O)N1CCNCCNCCNCCN1C(=O)c2cccc3cc([N+](=O)[O-])cc(c23)C1=O	0.548	0.184 µM and 0.334 µM	2.34 µM and 0.926 µM	0.422 µM and 0.465 µM	1.08 µM and 0.612 µM	0.7	0.297 µM		0.0979										0.227	< 0.001
[Cl][Bi]([O]c1ccccn1)[O]c1ccccn1	> 100	> 100 µM	> 100 µM	> 100 µM	> 100 µM	> 100	> 100 µM	> 100 µM	> 100	> 100 µM	> 100	> 100	> 100 µM			> 100				
CCN1C2=NC(=O)N(C)C(=O)C2(Cl)C(C(SC)S(=O)(=O)c2ccc(C)cc2)c2ccccc21 (stereo unspecified)	> 100	> 100 µM	> 100 µM	> 100 µM	52.9 µM	> 100	> 100 µM								41.6 µM				> 100	
O=C1CCC(Cc2ccc(Cl)cc2Cl)C(=O)N1 (stereo unspecified)	> 100	> 100 µM	> 100 µM	> 100 µM	> 100 µM	> 100	> 100 µM								> 100 µM			> 100		
Nc1ccccc1C#C/C=C\C#Cc1ccccc1C(F)(F)F	10.1	23.7 µM	58.7 µM	3.62 µM	16.7 µM	20.4		1.1 µM	0.536	10.5 µM	0.958	0.545	1.67 µM	1.46	> 51 µM		0.274	2.73	16.9	2.55
O=c1n(C2CCCCC2)c(=C(Cl)Cl)c(=C(Cl)Cl)n1C1CCCCC1		> 100 µM	> 100 µM	> 100 µM	> 100 µM	> 100	> 100 µM								> 100 µM				> 100	
Cc1cccc(C(C)(C)C)c1NC(=O)C(=O)C(C(=O)/C=C\c1ccccc1)C1OC(=O)c2ccccc21 (stereo unspecified)	> 100	> 100 µM	> 100 µM	> 100 µM	> 100 µM	> 100	> 100 µM								> 100 µM				> 100	
CC(C)N(C(=O)C12C3C4C5(C#N)C3C1(I)C5C42I)C(C)C (stereo unspecified)	> 100	> 100 µM	> 100 µM	> 100 µM	> 64.7 µM	> 100	> 100 µM								> 67.2 µM				> 100	
CSc1nc(NC2OCC(OC(C)=O)C(OC(C)=O)C2OC(C)=O)c2c(OC(C)=O)c(C)c(=O)oc2n1 (stereo unspecified)	> 100	> 100 µM	> 100 µM	> 100 µM	> 100 µM		> 100 µM								> 100 µM				> 100	
CCCCCCCCCC(=O)CC(=O)c1ccc(O)cc1O	85.9	71.2 µM	> 100 µM	70.1 µM	> 100 µM	> 100	> 100 µM								59.6 µM					
O=S(=O)([O-])c1cccc2cccc(N=Cc3ccccc3[O-])c12.O=S(=O)([O-])c1cccc2cccc(N=Cc3ccccc3[O-])c12.[O]=[U]=[O]		> 100 µM	> 100 µM	> 100 µM	> 100 µM	> 100	> 100 µM		> 100	45.6 µM	67.5	33.7	> 100 µM	39.8	> 100 µM	> 100			> 100	> 100
Nc1ccc2c(SCCSc3c4ccccc4nc4cc(N)ccc34)c3ccccc3nc2c1	> 100	> 100 µM	> 100 µM	> 100 µM	> 100 µM	> 100	> 100 µM								> 100 µM			> 100		
